From US7132252B2, “Methods for detecting the interaction of compounds with cytochrome P450 using optical molecular sensors” (Invitrogen Corporation, priority 1998, dated 2006)
Values belong to the compound of their own block, whether it stands above or below them.

Legend:
[1] = biological target: CYP2C9 (Homo sapiens, UniProt P11712); test: Kinetic properties of fluorogenic substrates with CYP 2C9; format: biochemical; details: for v (1.25 uM): turnover rate at 1.25 uM substrate; for v (10 uM): turnover rate at 10 uM substrate
[2] = biological target: CYP2C19 (Homo sapiens, UniProt P33261); test: Kinetic properties of fluorogenic substrates with CYP 2C19; format: biochemical; details: for v (1.25 uM): turnover rate at 1.25 uM substrate; for v (1.25 uM) / v (10 uM): — = too low to quantify; for v (10 uM): turnover rate at 10 uM substrate
[3] = biological target: T1, CYP 2B6 (Homo sapiens, UniProt P20813); test: Kinetic properties of fluorogenic substrates with CYP 2B6; format: biochemical; details: for v (1.25 uM): turnover rate at 1.25 uM substrate; for v (10 uM): turnover rate at 10 uM substrate
T1 sequence (P20813 1-491): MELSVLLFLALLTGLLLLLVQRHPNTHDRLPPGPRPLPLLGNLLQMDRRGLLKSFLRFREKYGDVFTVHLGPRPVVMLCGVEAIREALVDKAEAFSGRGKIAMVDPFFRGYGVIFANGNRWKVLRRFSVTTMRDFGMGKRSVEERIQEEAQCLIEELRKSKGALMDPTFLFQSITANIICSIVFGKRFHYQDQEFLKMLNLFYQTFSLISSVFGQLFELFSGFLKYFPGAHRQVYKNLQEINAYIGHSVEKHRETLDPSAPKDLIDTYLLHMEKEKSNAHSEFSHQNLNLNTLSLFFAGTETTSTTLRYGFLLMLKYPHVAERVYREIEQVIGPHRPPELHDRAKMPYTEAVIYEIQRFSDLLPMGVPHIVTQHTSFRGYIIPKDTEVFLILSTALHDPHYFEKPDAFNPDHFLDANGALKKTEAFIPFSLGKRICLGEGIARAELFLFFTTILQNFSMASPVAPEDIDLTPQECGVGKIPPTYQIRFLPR

[4] = biological target: T2, CYP3A4 (Homo sapiens, UniProt P08684); test: Kinetic properties of fluorogenic substrates with CYP 3A4; format: biochemical; details: for v (1.25 uM): turnover rate at 1.25 uM substrate; for v (1.25 uM) / v (10 uM): — = too low to quantify; for v (10 uM): turnover rate at 10 uM substrate
Text: For further understanding these terms in the context of this invention, attention is directed to FIG. 4 and the analysis of FIG. 4.
(§1) (respectively, MFC and MR).

[5] = biological target: T2, CYP3A4; test: in vitro; details: pH 8, % inhibition; for inhibition at 20 min, 10 µM: Condition A; for inhibition at 40 min, 10 µM: Condition B
[6] = biological target: CYP2D6 (Homo sapiens, UniProt P10635); test: Kinetic properties of fluorogenic substrates with CYP 2D6; format: biochemical; details: — = too low to quantify
Text: as §1

CYP2C19, sequence (P33261 whole entry): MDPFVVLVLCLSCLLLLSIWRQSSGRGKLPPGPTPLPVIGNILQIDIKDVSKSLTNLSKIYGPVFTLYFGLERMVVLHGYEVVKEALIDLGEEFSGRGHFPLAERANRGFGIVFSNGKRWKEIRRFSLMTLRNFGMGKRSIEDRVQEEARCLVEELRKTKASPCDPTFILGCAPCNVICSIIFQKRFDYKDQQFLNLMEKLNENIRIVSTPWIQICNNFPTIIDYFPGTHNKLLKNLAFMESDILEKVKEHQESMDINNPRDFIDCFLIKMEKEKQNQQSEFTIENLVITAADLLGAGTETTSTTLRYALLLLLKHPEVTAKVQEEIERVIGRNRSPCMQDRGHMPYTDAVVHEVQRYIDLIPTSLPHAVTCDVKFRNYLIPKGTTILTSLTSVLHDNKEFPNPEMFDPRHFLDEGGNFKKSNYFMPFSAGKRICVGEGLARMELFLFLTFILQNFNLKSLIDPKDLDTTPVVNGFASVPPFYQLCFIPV
T2 sequence (P08684 whole entry): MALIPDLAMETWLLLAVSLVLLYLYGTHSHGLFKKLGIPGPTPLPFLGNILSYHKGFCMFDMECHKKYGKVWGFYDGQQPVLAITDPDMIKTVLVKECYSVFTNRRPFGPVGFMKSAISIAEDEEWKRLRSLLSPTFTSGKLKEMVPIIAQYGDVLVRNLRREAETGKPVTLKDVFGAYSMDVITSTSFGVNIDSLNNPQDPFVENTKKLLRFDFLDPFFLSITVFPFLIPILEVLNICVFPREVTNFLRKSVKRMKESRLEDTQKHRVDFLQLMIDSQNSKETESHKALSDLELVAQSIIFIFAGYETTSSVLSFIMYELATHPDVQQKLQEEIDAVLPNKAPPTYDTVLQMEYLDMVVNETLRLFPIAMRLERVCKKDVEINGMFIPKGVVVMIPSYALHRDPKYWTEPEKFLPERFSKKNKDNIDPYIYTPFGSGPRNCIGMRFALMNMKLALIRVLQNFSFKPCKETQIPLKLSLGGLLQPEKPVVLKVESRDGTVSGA
CYP2C9, sequence (P11712 whole entry): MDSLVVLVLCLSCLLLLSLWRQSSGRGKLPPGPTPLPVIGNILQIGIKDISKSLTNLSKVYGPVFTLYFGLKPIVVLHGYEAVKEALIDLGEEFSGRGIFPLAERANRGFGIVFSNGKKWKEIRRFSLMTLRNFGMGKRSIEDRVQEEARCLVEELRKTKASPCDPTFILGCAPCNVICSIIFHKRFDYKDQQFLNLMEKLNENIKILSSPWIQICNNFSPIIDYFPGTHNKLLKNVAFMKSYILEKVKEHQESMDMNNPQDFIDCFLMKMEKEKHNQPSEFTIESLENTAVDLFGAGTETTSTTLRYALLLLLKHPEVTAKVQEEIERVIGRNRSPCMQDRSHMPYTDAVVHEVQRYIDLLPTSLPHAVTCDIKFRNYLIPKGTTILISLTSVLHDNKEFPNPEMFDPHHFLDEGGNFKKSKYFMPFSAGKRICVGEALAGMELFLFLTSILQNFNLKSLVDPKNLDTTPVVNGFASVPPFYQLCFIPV
CYP2D6, sequence (P10635 whole entry): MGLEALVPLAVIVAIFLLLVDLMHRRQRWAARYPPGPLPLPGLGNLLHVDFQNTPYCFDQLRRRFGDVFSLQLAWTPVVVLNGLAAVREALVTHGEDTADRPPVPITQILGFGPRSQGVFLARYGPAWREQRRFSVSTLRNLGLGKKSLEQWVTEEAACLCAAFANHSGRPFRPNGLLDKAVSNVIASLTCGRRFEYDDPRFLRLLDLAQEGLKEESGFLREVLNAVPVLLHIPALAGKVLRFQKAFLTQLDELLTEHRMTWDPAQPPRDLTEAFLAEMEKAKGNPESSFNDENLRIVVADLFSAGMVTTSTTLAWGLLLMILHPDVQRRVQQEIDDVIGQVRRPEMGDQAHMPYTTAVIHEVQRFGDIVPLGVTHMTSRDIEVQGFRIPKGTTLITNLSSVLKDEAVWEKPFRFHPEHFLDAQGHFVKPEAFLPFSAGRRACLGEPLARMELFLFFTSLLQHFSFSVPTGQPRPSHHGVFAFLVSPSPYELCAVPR

SMILES: COc1ccc2cc(C#N)c(=O)oc2c1 [3CMC, 3-cyano-7-methoxycoumarin, reference compound]
type of kinetics [1]: linear
v (1.25 uM) ([1]; — = too low to quantify): 0.00 min⁻¹
v (10 uM) ([1]; — = too low to quantify): 0.04 min⁻¹
type of kinetics [2]: linear
v (1.25 uM) [2]: 0.01 min⁻¹
v (10 uM) [2]: 0.07 min⁻¹

SMILES: CC1(C)C2=C(Cl)C(=O)C(Cl)=CC2=Nc2ccc(OCOCc3ccccc3)cc21 [BOM-DDAO]
v (1.25 uM) [4]: 0.4402 min⁻¹
v (10 uM) [4]: 4.2041 min⁻¹

SMILES: O=C(OCc1ccccc1)c1c2oc3cc(OCc4ccccc4)ccc3nc-2ccc1=O [BRCBE]
v (1.25 uM) [4]: 0.1992 min⁻¹
v (10 uM) [4]: 0.6241 min⁻¹

SMILES: CCN(CC)Cc1cc(=O)oc2cc(OC)ccc12 [DMMC]
v (1.25 uM) [2]: 0.03 min⁻¹
v (10 uM) [2]: 0.23 min⁻¹

SMILES: COCOc1ccc2c(C(F)(F)F)cc(=O)oc2c1 [MOMFC, 7-Methyloxymethyloxy-4-trifluorocoumarin]
type of kinetics [1]: Michaelis-Menten
v (1.25 uM) ([1]; — = too low to quantify): 0.00 min⁻¹
v (10 uM) ([1]; — = too low to quantify): 0.07 min⁻¹
Km ([1]; — = too low to quantify): 14.9 µM
kcat ([1]; — = too low to quantify): 0.0017 s⁻¹
type of kinetics [3]: notMichaelis-Menten
v (1.25 uM) ([3]; — = too low to quantify): 0.54 min⁻¹
v (10 uM) ([3]; — = too low to quantify): 0.71 min⁻¹

SMILES: O=C1CN(/N=C/c2ccc([N+](=O)[O-])o2)C(=O)N1 [Nitrofurantoin]
inhibition at 20 min, 10 µM ([5]; substrate BOMCC): 44%
inhibition at 40 min, 10 µM ([5]; substrate BOMCC): 33%
inhibition at 20 min, 10 µM ([5]; substrate BOMR): -19%
inhibition at 40 min, 10 µM ([5]; substrate BOMR): 27%
inhibition at 20 min, 10 µM ([5]; substrate DBOMF): -9%
inhibition at 40 min, 10 µM ([5]; substrate DBOMF): -3%

SMILES: CCCCCCCCOCOc1ccc2cc(C#N)c(=O)oc2c1 [OOMCC]
v (1.25 uM) [4]: 0.2274 min⁻¹
v (10 uM) [4]: 0.961 min⁻¹
v (1.25 uM) [2]: 0.179 min⁻¹
v (10 uM) [2]: 1.043 min⁻¹

SMILES: C=CCOc1ccccc1OCC(O)CNC(C)C (centres unmarked) [Oxprenolol]
inhibition at 20 min, 10 µM ([5]; substrate BOMCC): 7%
inhibition at 40 min, 10 µM ([5]; substrate BOMCC): 21%
inhibition at 20 min, 10 µM ([5]; substrate BOMR): -5%
inhibition at 40 min, 10 µM ([5]; substrate BOMR): 13%
inhibition at 20 min, 10 µM ([5]; substrate DBOMF): 1%
inhibition at 40 min, 10 µM ([5]; substrate DBOMF): 3%

Second part, the compound after the results:

v (1.25 uM) ([1]; — = too low to quantify): 0.00 min⁻¹
v (10 uM) ([1]; — = too low to quantify): 0.00 min⁻¹
type of kinetics [3]: Michaelis-Menten
Km ([3]; human, CYP 2B6 isozyme, — = too low to quantify): 1.3 µM
v (1.25 uM) ([3]; — = too low to quantify): 0.04 min⁻¹
v (10 uM) ([3]; — = too low to quantify): 0.07 min⁻¹
kcat ([3]; — = too low to quantify): 0.0017 s⁻¹
type of kinetics [2]: Michaelis-Menten
v (1.25 uM) [2]: 0.02 min⁻¹
v (10 uM) [2]: 0.06 min⁻¹
SMILES: N#Cc1cc2ccc(OCc3ccccc3)cc2oc1=O [BCC, 7-Benzyloxy-3-cyanocoumarin, reference compound]

type of kinetics [4]: linear
v (1.25 uM) [4]: 0.04 min⁻¹
v (10 uM) [4]: 0.81 min⁻¹
SMILES: O=c1cc(C(F)(F)F)c2ccc(OCc3ccccc3)cc2o1 [BFC, 7-Benzyloxy-4-trifluoromethylcoumarin, reference compound]

inhibition at 20 min, 10 µM ([5]; substrate BOMCC): -11%
inhibition at 40 min, 10 µM ([5]; substrate BOMCC): 21%
inhibition at 20 min, 10 µM ([5]; substrate BOMR): -27%
inhibition at 40 min, 10 µM ([5]; substrate BOMR): 24%
inhibition at 20 min, 10 µM ([5]; substrate DBOMF): 21%
inhibition at 40 min, 10 µM ([5]; substrate DBOMF): 5%
SMILES: O=C1NC(=O)C(c2ccccc2)(c2ccccc2)N1 [Diphenylhydantoin]

type of kinetics [4]: Michaelis-Menten
v (1.25 uM) [4]: 0.03 min⁻¹
v (10 uM) [4]: 0.10 min⁻¹
SMILES: CCOCOc1ccc2nc3ccc(=O)cc-3oc2c1 [EOMR]

v (1.25 uM) ([6]; turnover rate at 1.25 uM substrate): 0.0076 min⁻¹
v (10 uM) ([6]; turnover rate at 10 uM substrate): 0.0378 min⁻¹
v (1.25 uM) [2]: 0.027 min⁻¹
v (10 uM) [2]: 0.232 min⁻¹
SMILES: CC(C)Oc1ccc2cc(C#N)c(=O)oc2c1 [IPCC]

inhibition at 20 min, 10 µM ([5]; substrate BOMCC): 59%
inhibition at 40 min, 10 µM ([5]; substrate BOMCC): 48%
inhibition at 20 min, 10 µM ([5]; substrate BOMR): -8%
inhibition at 40 min, 10 µM ([5]; substrate BOMR): 30%
inhibition at 20 min, 10 µM ([5]; substrate DBOMF): -9%
inhibition at 40 min, 10 µM ([5]; substrate DBOMF): 3%
SMILES: NNC(=O)c1ccncc1 [Isoniazid]

type of kinetics [1]: Michaelis-Menten
v (1.25 uM) ([1]; — = too low to quantify): 0.01 min⁻¹
v (10 uM) ([1]; — = too low to quantify): 0.07 min⁻¹
type of kinetics [2]: Michaelis-Menten
v (1.25 uM) [2]: 0.14 min⁻¹
v (10 uM) [2]: 0.38 min⁻¹
SMILES: COCOc1ccc2cc(C#N)c(=O)oc2c1 [MOMCC]
